{"source": "patent US20110166078A1", "about": "“OLIGOSACCHARIDE COMPOUNDS FOR USE IN MOBILISING STEM CELLS” (ENDOTIS PHARMA, priority 2008, published 2011)", "system": "hematopoietic stem cells (LSK cells) in blood", "assay": "Hematopoietic stem cell mobilisation, sequential G-CSF, AMD3100 and compound 240", "format": "in vivo", "details": "compound 240 i.v. 15 mg/kg 30 min after AMD3100 s.c. 5 mg/kg, after G-CSF 2.5 μg s.c.; C57BL/6 mice; FIG. 5", "method": "During cancer treatment, patients receive injections of a cytokine (G-CSF) mobilising stem cells. These stem cells are then collected from the peripheral blood using an apheresis machine. Apheresis is usually performed for several days until enough stem cells have been collected to support treatment with high-dose chemotherapy and/or radiotherapy. In the experiments of the present invention, different doses (5, 15 and 30 mg/kg body weight (bw)) and administration routes (intraperitoneal, intravenous and subcutaneous) were tested along time course experiments in mice (30 min, 1 h, 3 h and 5 h).\nC57BL/6 mice (8-10 weeks old, obtained from Jackson Laboratory, USA) were housed 15 days in the CEA/DSV/iRCM animal facilities. Animal care was in accordance with French Government procedures (Services Veterinaires de la Sante et de la Production Animale, Ministere de l'Agriculture, France).\ni) intravenously: Anesthetized mice were placed on their left side. Injection of 100 μl of compound was performed with insulin syringe into the retro-orbital sinus of the right eye of mice. […]\nTwo months aged-C57BL/6 mice were injected s.c. with 2.5 μg of G-CSF twice a day for 2 days. […] White blood cells were counted and labeled with lineage-PE-Cy7 (L), Sca-PE (S), and cKit-APC (K) antibodies for data acquisition by cytometry. […]", "data": [{"smiles": "C#CCCCOC1OC(COS(=O)(=O)[O-])C(OC2OC(C(=O)[O-])C(OC3OC(COS(=O)(=O)[O-])C(OC4OC(C(=O)[O-])C(OC5OC(COS(=O)(=O)[O-])C(OC6OC(C(=O)[O-])C(OC7OC(COS(=O)(=O)[O-])C(OC8OC(C(=O)[O-])C(OCc9ccccc9)C(OCc9ccccc9)C8OS(=O)(=O)[O-])C(OCc8ccccc8)C7NS(=O)(=O)[O-])C(OCc7ccccc7)C6OS(=O)(=O)[O-])C(OCc6ccccc6)C5NS(=O)(=O)[O-])C(OCc5ccccc5)C4OS(=O)(=O)[O-])C(OCc4ccccc4)C3NS(=O)(=O)[O-])C(OCc3ccccc3)C2OS(=O)(=O)[O-])C(OCc2ccccc2)C1NS(=O)(=O)[O-].[Na+].[Na+].[Na+].[Na+].[Na+].[Na+].[Na+].[Na+].[Na+].[Na+].[Na+].[Na+].[Na+].[Na+].[Na+].[Na+]", "note": "(stereo not shown) [Compound 240]", "values": [{"measurement": "HSCs mobilized, times more than with G-CSF+AMD3100 combination", "result": "About 3 times"}]}]}
